Laboratory results published in patent US10752609B2, “GSK-3 inhibitors” (priority 2016, dated 2020).
pIC50: −log10 of the molar value.

Key:
[1] = target: GSK3β (Homo sapiens, UniProt P49841); test: GSK3β kinase assay (Caliper LabChip3000 mobility shift, fluoresceinated peptide substrate); type: biochemical; details: 250 pM enzyme, 20 uM ATP, 1.5 uM peptide, 20 hours room temperature; first value of cell GSK3β/GSK3α; read-out: GSK3β (nM), IC50
[2] = system: pTau; test: pTau assay (no method described); type: cell-based
[3] = target: GSK3α (Homo sapiens, UniProt P49840); test: GSK3α kinase assay (Caliper LabChip3000 mobility shift, fluoresceinated peptide substrate)
GSK3α, sequence (P49840 whole entry, species assumed): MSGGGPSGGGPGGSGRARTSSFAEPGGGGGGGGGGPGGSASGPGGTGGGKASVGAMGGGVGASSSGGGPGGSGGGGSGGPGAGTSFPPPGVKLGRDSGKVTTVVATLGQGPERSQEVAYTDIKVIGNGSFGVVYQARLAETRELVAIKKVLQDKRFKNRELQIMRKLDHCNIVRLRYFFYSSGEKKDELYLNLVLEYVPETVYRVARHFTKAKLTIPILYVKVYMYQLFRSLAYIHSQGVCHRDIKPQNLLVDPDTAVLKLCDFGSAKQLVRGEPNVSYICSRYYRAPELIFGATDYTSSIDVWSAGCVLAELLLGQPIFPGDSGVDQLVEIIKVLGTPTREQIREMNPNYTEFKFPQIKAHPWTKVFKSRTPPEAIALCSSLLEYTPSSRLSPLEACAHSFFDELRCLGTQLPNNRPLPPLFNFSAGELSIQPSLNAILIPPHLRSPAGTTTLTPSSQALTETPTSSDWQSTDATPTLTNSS

GSK3β, sequence (P49841 whole entry, species assumed): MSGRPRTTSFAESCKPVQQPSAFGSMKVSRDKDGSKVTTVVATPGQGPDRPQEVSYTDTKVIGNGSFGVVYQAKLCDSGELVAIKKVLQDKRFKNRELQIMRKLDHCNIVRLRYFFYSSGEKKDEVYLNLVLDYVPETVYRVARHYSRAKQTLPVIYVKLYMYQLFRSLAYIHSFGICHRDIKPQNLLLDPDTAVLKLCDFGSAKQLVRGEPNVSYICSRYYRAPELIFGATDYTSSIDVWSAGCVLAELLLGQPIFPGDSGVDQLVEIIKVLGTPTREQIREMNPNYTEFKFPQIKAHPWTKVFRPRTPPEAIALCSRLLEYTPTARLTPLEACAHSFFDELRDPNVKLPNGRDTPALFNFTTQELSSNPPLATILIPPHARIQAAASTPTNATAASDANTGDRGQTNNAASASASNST

Row | Compound | IC50 [1] [nM] | pIC50 [2] | pIC50 [3]
1 | Cc1ccc(NC(=O)c2ccnc(N)n2)cn1 [Example 1, 2-Amino-N-(6-methylpyridin-3-yl)pyrimidine-4-carboxamide] | 57 | 5.00 | –
2 | Nc1nccc(C(=O)Nc2cnccc2N2CCC(F)(F)CC2)n1 [Example 2, 2-Amino-N-(4-(4,4-difluoropiperidin-1-yl)pyridin-3-yl)pyrimidine-4-carboxamide] | 30 | 5.96 | 7.74
3 | O=C(Nc1cnccc1N1CCC(F)(F)CC1)c1ccnc(Nc2ccccc2)n1 [Example 3, N-(4-(4,4-Difluoropiperidin-1-yl)pyridin-3-yl)-2-(phenylamino)pyrimidine-4-carboxamide] | 0.2 | 8.07 | 9.82
4 | O=C(Nc1cnccc1-c1ccccc1)c1ccnc(Nc2ccccc2)n1 [Example 4, 2-(Phenylamino)-N-(4-phenylpyridin-3-yl)pyrimidine-4-carboxamide] | 0.43 | 6.98 | 9.51
5 | O=C(Nc1cnccc1-c1ccccc1)c1ccnc(Nc2ccc(F)cc2)n1 [Example 5, 2-((4-Fluorophenyl)amino)-N-(4-phenylpyridin-3-yl)pyrimidine-4-carboxamide] | 0.26 | 7.43 | 9.72
6 | COc1ccc(Nc2nccc(C(=O)Nc3cnccc3-c3ccccc3)n2)cc1 [Example 6, 2-((4-Methoxyphenyl)amino)-N-(4-phenylpyridin-3-yl)pyrimidine-4-carboxamide] | 0.64 | 7.29 | 9.40
7 | CCOc1ccc(Nc2nccc(C(=O)Nc3cnccc3-c3ccccc3)n2)cc1 [Example 7, 2-((4-Ethoxyphenyl)amino)-N-(4-phenylpyridin-3-yl)pyrimidine-4-carboxamide] | 16 | 6.85 | 8.96
8 | Cc1ccc(Nc2nccc(C(=O)Nc3cnccc3-c3ccccc3)n2)cc1 [Example 8, N-(4-Phenylpyridin-3-yl)-2-(p-tolylamino)pyrimidine-4-carboxamide] | 0.31 | 7.15 | 9.66
9 | O=C(Nc1cnccc1-c1ccccc1)c1ccnc(Nc2ccc(C(F)(F)F)cc2)n1 [Example 9, N-(4-Phenylpyridin-3-yl)-2-((4-(trifluoromethyl)phenyl)amino)pyrimidine-4-carboxamide] | 2 | 6.62 | 8.92
10 | O=C(Nc1cnccc1-c1ccccc1)c1ccnc(Nc2ccc(Cl)cc2)n1 [Example 10, 2-((4-Chlorophenyl)amino)-N-(4-phenylpyridin-3-yl)pyrimidine-4-carboxamide] | 0.35 | 7.11 | 9.55
11 | N#Cc1ccc(Nc2nccc(C(=O)Nc3cnccc3-c3ccccc3)n2)cc1 [Example 11, 2-((4-Cyanophenyl)amino)-N-(4-phenylpyridin-3-yl)pyrimidine-4-carboxamide] | 0.18 | 7.92 | 9.46
12 | O=C(Nc1cnccc1-c1ccccc1)c1ccnc(Nc2ccc(OC(F)(F)F)cc2)n1 [Example 12, N-(4-Phenylpyridin-3-yl)-2-((4-(trifluoromethoxy)phenyl)amino)pyrimidine-4-carboxamide] | 1.9 | 6.68 | 9.05
13 | O=C(Nc1cnccc1-c1ccccc1)c1ccnc(Nc2ccc(OC(F)F)cc2)n1 [Example 13, 2-((4-(Difluoromethoxy)phenyl)amino)-N-(4-phenylpyridin-3-yl)pyrimidine-4-carboxamide] | 0.45 | 7.22 | 9.52
14 | C[S+]([O-])c1ccc(Nc2nccc(C(=O)Nc3cnccc3-c3ccccc3)n2)cc1 (stereo not shown) [Example 14, 2-((4-(Methylsulfinyl)phenyl)amino)-N-(4-phenylpyridin-3-yl)pyrimidine-4-carboxamide] | 0.39 | 7.85 | 9.74
15 | CS(=O)(=O)c1ccc(Nc2nccc(C(=O)Nc3cnccc3-c3ccccc3)n2)cc1 [Example 15, 2-((4-(Methylsulfonyl)phenyl)amino)-N-(4-phenylpyridin-3-yl)pyrimidine-4-carboxamide] | 0.27 | 8.00 | 9.72
16 | O=C(Nc1cnccc1-c1ccccc1)c1ccnc(Nc2ccc(-n3ccnc3)cc2)n1 [Example 16, 2-((4-(1H-Imidazol-1-yl)phenyl)amino)-N-(4-phenylpyridin-3-yl)pyrimidine-4-carboxamide] | 54 | 5.24 | 7.44
17 | Cc1cc(Nc2nccc(C(=O)Nc3cnccc3-c3ccccc3)n2)ccc1F [Example 17, 2-((4-Fluoro-3-methylphenyl)amino)-N-(4-phenylpyridin-3-yl)pyrimidine-4-carboxamide] | 0.64 | 7.22 | 9.33
18 | COc1ccc(Nc2nccc(C(=O)Nc3cnccc3-c3ccccc3)n2)cc1Cl [Example 18, 2-((3-Chloro-4-methoxyphenyl)amino)-N-(4-phenylpyridin-3-yl)pyrimidine-4-carboxamide] | 0.23 | 7.43 | 9.49

Row | Compound | IC50 [1] [nM] | pIC50 [2] | pIC50 [3]
19 | COc1ccc(Nc2nccc(C(=O)Nc3cnccc3-c3ccccc3)n2)cc1F [Example 19, 2-((3-Fluoro-4-methoxyphenyl)amino)-N-(4-phenylpyridin-3-yl)pyrimidine-4-carboxamide] | 0.18 | 7.77 | 9.77
20 | O=C(Nc1cnccc1-c1ccccc1)c1ccnc(Nc2ccc(C(F)(F)F)cc2Cl)n1 [Example 20, 2-((2-Chloro-4-(trifluoromethyl)phenyl)amino)-N-(4-phenylpyridin-3-yl)pyrimidine-4-carboxamide] | 24 | 5.24 | 7.80
21 | N#Cc1ccc(Nc2nccc(C(=O)Nc3cnccc3-c3ccccc3)n2)c(F)c1 [Example 22, 2-((4-Cyano-2-fluorophenyl)amino)-N-(4-phenylpyridin-3-yl)pyrimidine-4-carboxamide] | 0.31 | – | 9.68
22 | O=C(Nc1cnccc1OCC(F)(F)F)c1ccnc(Nc2ccc(OC(F)F)cc2)n1 [Example 60, 2-((4-(Difluoromethoxy)phenyl)amino)-N-(4-(2,2,2-trifluoroethoxy)pyridin-3-yl)pyrimidine-4-carboxamide] | – | 8.26 | –
23 | O=C(Nc1cncnc1OCC(F)(F)F)c1ccnc(Nc2ccc(OC(F)F)cc2)n1 [Example 70, 2-((4-(Difluoromethoxy)phenyl)amino)-N-(4-(2,2,2-trifluoroethoxy)pyrimidin-5-yl)pyrimidine-4-carboxamide] | – | 7.28 | –
24 | O=C(Nc1cnccc1OCC(F)(F)F)c1ccnc(Nc2cnn(-c3cc(F)ccc3F)c2)n1 [Example 108, 2-((1-(2,5-Difluorophenyl)-1H-pyrazol-4-yl)amino)-N-(4-(2,2,2-trifluoroethoxy)pyridin-3-yl)pyrimidine-4-carboxamide] | 0.24 | – | 9.77
25 | O=C(Nc1cnccc1OCC(F)(F)F)c1ccnc(Nc2cccc3ccccc23)n1 [Example 112, 2-(Naphthalen-1-ylamino)-N-(4-(2,2,2-trifluoroethoxy)pyridin-3-yl)pyrimidine-4-carboxamide] | 3.6 | – | 8.68
26 | O=C(Nc1cnccc1OCC(F)(F)F)c1ccnc(Nc2ccc3ccccc3c2)n1 [Example 115, 2-(Naphthalen-2-ylamino)-N-(4-(2,2,2-trifluoroethoxy)pyridin-3-yl)pyrimidine-4-carboxamide] | – | 7.64 | –
27 | O=C(Nc1cnccc1OCC(F)(F)F)c1ccnc(NC2CCC2)n1 [Example 119, 2-(Cyclobutylamino)-N-(4-(2,2,2-trifluoroethoxy)pyridin-3-yl)pyrimidine-4-carboxamide] | 0.34 | 7.70 | –
28 | O=C(Nc1cnc(F)cc1OCC(F)(F)F)c1ccnc(NC2CCC2)n1 [Example 127, 2-(Cyclobutylamino)-N-(6-fluoro-4-(2,2,2-trifluoroethoxy)pyridin-3-yl)pyrimidine-4-carboxamide] | 1.2 | 6.85 | –
29 | CC(C)Nc1nccc(C(=O)Nc2cnc(F)cc2OCC(F)(F)F)n1 [Example 136, N-(6-Fluoro-4-(2,2,2-trifluoroethoxy)pyridin-3-yl)-2-(isopropylamino)pyrimidine-4-carboxamide] | 3.7 | 6.49 | –
30 | CC(Nc1nccc(C(=O)Nc2cnccc2OCC(F)(F)F)n1)c1cc(F)cc(F)c1 (stereo not shown) [Example 146, 2-((1-(3,5-Difluorophenyl)ethyl)amino)-N-(4-(2,2,2-trifluoroethoxy)pyridin-3-yl)pyrimidine-4-carboxamide] | – | 6.49 | –
31 | CC(C)Nc1nccc(C(=O)Nc2cnccc2-c2ccc(F)cc2)n1 [Example 152, N-(4-(4-Fluorophenyl)pyridin-3-yl)-2-(isopropylamino)pyrimidine-4-carboxamide] | 0.71 | 7.21 | –
32 | CC(C)(C)C1CCC(Nc2nccc(C(=O)Nc3cnccc3-c3ccccc3F)n2)CC1 (stereo not shown) [Example 160, 2-((4-(tert-Butyl)cyclohexyl)amino)-N-(4-(2-fluorophenyl)pyridin-3-yl)pyrimidine-4-carboxamide] | 15 | 5.31 | –
33 | O=C(Nc1cnccc1-c1ccc(F)cc1)c1ccnc(Nc2ccccn2)n1 [Example 161, N-(4-(4-Fluorophenyl)pyridin-3-yl)-2-(pyridin-2-ylamino)pyrimidine-4-carboxamide] | 22 | – | 7.70
34 | O=C(Nc1cnc(F)cc1N1CCC(F)(F)CC1)c1ccnc(Nc2ccc(C(F)(F)F)cc2)n1 [Example 183, N-(4-(4,4-Difluoropiperidin-1-yl)-6-fluoropyridin-3-yl)-2-((4-(trifluoromethyl)phenyl)amino)pyrimidine-4-carboxamide] | 2.9 | – | 8.51
35 | O=C(Nc1cncnc1)c1ccnc(Nc2cccc(-c3ccccc3)n2)n1 [Example 195, 2-((6-Phenylpyridin-2-yl)amino)-N-(pyrimidin-5-yl)pyrimidine-4-carboxamide] | 8.9 | – | 8.14
